Legend:
[1] = Luminescence activity of nanoKAZ mutants secreted into culture medium from CHO-K1 cells using secretory signal peptide sequence; format: biochemical; conditions: substrate furimazine, with secretory signal peptide, nanoKAZ with CTZ = 1.0
Method: Chinese hamster ovary cell line CHO-K1 was cultured in Ham's F-12 medium (manufactured by Wako Pure Chemical Industries, Ltd.) supplemented with 10% (v/v) fetal bovine serum (manufactured by Biowest Inc.). The CHO-K1 cells were seeded in a 6-well plate in 2×10^5 cells/well/2 mL medium (n=2) and cultured in an incubator at 37° C. in 5% (v/v) CO2. After 24 hours, the purified recombinant plasmid was transfected to CHO-K1 cells using a FuGene HD transfection kit (manufactured by Promega Corp.) and the cells were provided for subsequent experiment. Specifically, 1 μg of the recombinant plasmid, 0.1 μg of the internal standard vector pGL4.13 [Luc2/sv40] and 3.3 μL of FuGene HD were added to 100 μL of the medium and allowed to stand at room temperature for 15 minutes. […]
Luminescence activity was measured for 60 seconds using a luminometer (manufactured by Atto Inc.: AB2200); the maximum intensity of luminescence (Imax) and the integrated values for 60 seconds within parentheses in terms of relative intensity of luminescence are shown in TABLE 3.
(§1) Luminescence activity of the nanoKAZ mutants secreted into the culture medium from animal cultured cells using the secretory signal peptide sequence was measured by the method described in EXAMPLE 9. […] The nanoKAZ-AQQL mutant is secretable protein and can use coelenterazine as the most efficient substrate for the luminescence reaction.

[2] = Luminescence activity of ZZ-fused nanoKAZ mutants expressed in E. coli (soluble fraction); format: biochemical; conditions: nanoKAZ with CTZ = 1.0
Method: The E. coli BL21 strain (manufactured by Novagen) was used as a host cell. The strain was cultured in 10 mL of Luria-Bertani medium containing ampicillin (50 μg/mL) at 37° C. for 18 hours. The seed culture was inoculated to 10 mL of LB medium and incubated for 3 hours, followed by cooling in an ice-water bath for 1 hour. IPTG was added to the culture medium at a final concentration of 0.2 mM, followed by incubation at 15° C. for further 20 hours. The E. coli cells were collected from 1 mL of the culture medium by centrifugation. The collected E. coli cells were suspended in 0.5 mL of 50 mM Tris-HCl (pH 7.6) containing 10 mM EDTA (manufactured by Wako Pure Chemical Industries, Ltd.). The cells were disrupted by sonication for 5 seconds using a Branson Model 250 Sonifire. The cells were subjected to high-speed centrifugation to recover 0.5 mL of the supernatant as a soluble fraction containing the ZZ-fused nanoKAZ mutant. This soluble fraction, 5 μL, was subjected to SDS-PAGE electrophoresis to confirm expression of the proteins. In FIG. 2, numerals 1 to 5 represent as follows: 1: molecular weight size markers; 2: nanoKAZ, 3: nanoKAZ-AQQL, 4: nanoKAZ-KVA, 5: nanoKAZ-FLM. The results in FIG. 2 reveal that each mutated nanoKAZ protein was expressed in E. coli as soluble proteins at the same expression level as in nanoKAZ.
After 5 μL of the soluble fraction solution obtained in EXAMPLE 3 was added to 100 μL of 50 mM Tris-HCl (pH 7.6)-10 mM EDTA containing 1 μg of coelenterazine (manufactured by JNC Corp.) or its analogue, a luminescence reaction was started. Luminescence activity was measured for 60 seconds using a luminometer (manufactured by Atto Inc.: AB2200). The relative maximum intensity of luminescence (Imax) and the integrated values for 60 seconds within parentheses in terms of relative intensity of luminescence are shown in TABLE 2.
The coelenterazine analogues used for substrate specificity studies were synthesized by the methods described in publications, respectively. Specifically, bis-coelenterazine was synthesized by the method described in Nakamura et al. (1997) Tetrahedron Lett. 38: 6405-6406, furimazine by the method described in Hall et al. (2012) ACS Chem. Biol. […], h-coelenterazine by the method described in Inouye et al (2010) Anal. Biochem. 407:247-252 and 6h-coelenterazine and 6h-f-coelenterazine by the method described in Inouye et al (2013) Biochem. Biophys. Res. Commun. 437: 23-28. f-coelenterazine was purchased from Prolume Ltd. Luminescence activity of the ZZ-fused nanoKAZ mutants was measured by the method described in EXAMPLE 4.

[3] = reported in the literature (Patent Document 2, Non-Patent Documents 5 and 6); cited from earlier work
[4] = Luminescence activity of nanoKAZ mutants secreted into culture medium from CHO-K1 cells using secretory signal peptide sequence; format: biochemical; conditions: nanoKAZ with CTZ = 1.0
Method: Chinese hamster ovary cell line CHO-K1 was cultured in Ham's F-12 medium (manufactured by Wako Pure Chemical Industries, Ltd.) supplemented with 10% (v/v) fetal bovine serum (manufactured by Biowest Inc.). The CHO-K1 cells were seeded in a 6-well plate in 2×10^5 cells/well/2 mL medium (n=2) and cultured in an incubator at 37° C. in 5% (v/v) CO2. After 24 hours, the purified recombinant plasmid was transfected to CHO-K1 cells using a FuGene HD transfection kit (manufactured by Promega Corp.) and the cells were provided for subsequent experiment. Specifically, 1 μg of the recombinant plasmid, 0.1 μg of the internal standard vector pGL4.13 [Luc2/sv40] and 3.3 μL of FuGene HD were added to 100 μL of the medium and allowed to stand at room temperature for 15 minutes. Subsequently, 100 μL of the DNA-FuGene complex solution was added to the cells in the 6-well plate. After incubation for 46 hours, the culture medium was collected.
(§2) The crude enzyme solution, 5 μl, obtained in EXAMPLE 8 was added to 100 μl of 30 mM Tris-HCl (pH 7.6)-10 mM EDTA (Wako Pure Chemical Industries, Ltd.) containing 1 μg of coelenterazine (manufactured by JNC Corp.), and the luminescence reaction was started. Luminescence activity was measured for 60 seconds using a luminometer (manufactured by Atto Inc.: AB2200); the maximum intensity of luminescence (Imax) and the integrated values for 60 seconds within parentheses in terms of relative intensity of luminescence are shown in TABLE 3.
as §1

[5] = Luminescence activity of nanoKAZ mutants in culture medium of CHO-K1 cells without secretory signal peptide sequence; format: biochemical; conditions: substrate coelenterazine (CTZ), nanoKAZ = 1.0
Method: Chinese hamster ovary cell line CHO-K1 was cultured in Ham's F-12 medium (manufactured by Wako Pure Chemical Industries, Ltd.) supplemented with 10% (v/v) fetal bovine serum (manufactured by Biowest Inc.). The CHO-K1 cells were seeded in a 6-well plate in 2×10^5 cells/well/2 mL medium (n=2) and cultured in an incubator at 37° C. in 5% (v/v) CO2. After 24 hours, the purified recombinant plasmid was transfected to CHO-K1 cells using a FuGene HD transfection kit (manufactured by Promega Corp.) and the cells were provided for subsequent experiment. […]
as §2
Luminescence activity of the nanoKAZ mutants in culture medium, which were secreted from animal culture cells without using a secretory signal peptide sequence, was measured by the method described in EXAMPLE 9. […]

[6] = substrate 6h-coelenterazine, with secretory signal peptide
[7] = substrate 6h-f-coelenterazine, with secretory signal peptide
[8] = substrate bis-coelenterazine, with secretory signal peptide
[9] = substrate coelenterazine (CTZ), with Gaussia luciferase secretory signal peptide
[10] = substrate f-coelenterazine, with secretory signal peptide
[11] = substrate h-coelenterazine, with secretory signal peptide

nanoKAZ: known mutated 19 kDa catalytic protein of Oplophorus luciferase with 16 amino acid mutations; amino acid sequence SEQ ID NO: 2
Relative maximum intensity of luminescence Imax [1]: 5.9
integrated values of relative intensity of luminescence for 1 min [1]: (6.2)
Relative maximum intensity of luminescence Imax ([2]; substrate 6h-coelenterazine): 0.6
integrated values of relative intensity of luminescence for 1 min ([2]; substrate 6h-coelenterazine): (0.4)
Relative maximum intensity of luminescence Imax ([2]; substrate 6h-f-coelenterazine): 7.9
integrated values of relative intensity of luminescence for 1 min ([2]; substrate 6h-f-coelenterazine): (4.6)
Relative maximum intensity of luminescence Imax ([2]; substrate bis-coelenterazine): 9.0
integrated values of relative intensity of luminescence for 1 min ([2]; substrate bis-coelenterazine): (6.3)
Relative maximum intensity of luminescence Imax ([2]; substrate coelenterazine (CTZ)): 1.0
integrated values of relative intensity of luminescence for 1 min ([2]; substrate coelenterazine (CTZ)): (1.0)
Relative maximum intensity of luminescence Imax ([2]; substrate f-coelenterazine): 20.2
integrated values of relative intensity of luminescence for 1 min ([2]; substrate f-coelenterazine): (10.0)
Relative maximum intensity of luminescence Imax ([2]; substrate furimazine): 4.8
integrated values of relative intensity of luminescence for 1 min ([2]; substrate furimazine): (3.7)
Relative maximum intensity of luminescence Imax ([2]; substrate h-coelenterazine): 14.2
integrated values of relative intensity of luminescence for 1 min ([2]; substrate h-coelenterazine): (7.4)
luminescence activity, fold higher than that of native 19 kDa protein [3]: approximately 10 fold
Relative maximum intensity of luminescence Imax [4, 6]: 0.8
integrated values of relative intensity of luminescence for 1 min [4, 6]: (0.7)
Relative maximum intensity of luminescence Imax [4, 7]: 11.7
integrated values of relative intensity of luminescence for 1 min [4, 7]: (11.8)
Relative maximum intensity of luminescence Imax [4, 8]: 11.1
integrated values of relative intensity of luminescence for 1 min [4, 8]: (11.1)
Relative maximum intensity of luminescence Imax [4, 9]: 1.0
integrated values of relative intensity of luminescence for 1 min [4, 9]: (1.0)
Relative maximum intensity of luminescence Imax [4, 10]: 21.6
integrated values of relative intensity of luminescence for 1 min [4, 10]: (12.2)
Relative maximum intensity of luminescence Imax [4, 11]: 16.4
integrated values of relative intensity of luminescence for 1 min [4, 11]: (9.9)
Relative maximum intensity of luminescence Imax [5]: 1.0 (1.0)
integrated values of relative intensity of luminescence for 1 min [5]: 1.0 (1.0)
